Series [1] in a line: Thermal stability of rings on recrystallization from boiling n-butanol. In kind it is physicochemical. As to conditions: recrystallization from boiling n-butanol (b.p.=118° C.). On the procedure: (Bu4N)2[SO4^2−⊂{cis-Cu^II(μ-OH)(μ-pz)}28] can also be crystallized from chlorobenzene, 1,2-dichloroethane or n-butylamine by hexane vapor diffusion, and from CH2Cl2 by Et2O vapor diffusion. SO4^2−⊂{cis-Cu^II(μ-OH)(μ-pz)}31 can also be crystallized as the Bu4N-salt from chlorobenzene. Moreover, crystals of (Bu4N)2[SO4^2−⊂{cis-Cu^II(μ-OH)(μ-pz)}28] were also obtained by recrystallization from boiling n-butanol (b.p.=118° C.), indicating stability of the rings at that temperature.

The nature of series [2]: Solubility of nano-jar aggregates and polymer in solvents. Type of series: physicochemical. To be noted: dark blue powder; for solubility in a wide variety of solvents: CCl4, CS2, aromatic hydrocarbons, ethers, ketones, esters, nitriles, amines, halogenated and nitro compounds, DMF and DMSO. The source says:
The unusually high solubility of (Bu4N)2[SO4^2−⊂{cis-Cu^II(μ-OH)(μ-pz)}6+12+10], and (Bu4N)2[SO4^2−⊂{cis-Cu^II(μ-OH)(μ-pz)}8+14+9]
Production of Host 1 and Host 2 via depolymerisation of [Cu^II(μ-OH)(μ-pz)]∞ includes the steps of combining aqueous solutions of CuSO4 and KOH/Hpz (1:2:1 molar ratio), which results in the formation of a blue-purple precipitate (Scheme 1). […] Elemental analysis results concur with the formula [Cu(OH)(pz)] (for C3H4CuN2O, M.W.=147.62, calculated/found: C, 24.4124.25%; H, 2.73/2.72%; N, 18.9818.40%). The structure of this intractable material likely consists of linear polymeric chains resulting from an all-trans arrangement of the pyrazole and OH moieties about the copper centers, similar to the ones found in [Cu^II(μ-pz)2]∞.
(Bu4N)HSO4 or (Bu4N)2SO4 can be added to a suspension of [Cu(μ-OH)(μ-pz)]∞ in THF or toluene, which leads to the immediate formation of a deep blue solution, and gradual dissolution of the solid. […] Hexane vapor diffusion to a toluene solution is then used to obtain dark blue single crystals in the form of blocks and thin plates.
In particular, one embodiment includes anion-encapsulating aggregates based on encapsulating host assemblies such as {cis-Cu^II(μ-OH)(μ-4-Mepz)}27 (“Host 13”), {cis-Cu^II(μ-OH)(μ-4-Mepz)}28(“Host 14”), {cis-Cu^II(μ-OH)(μ-4-Mepz)}29(“Host 15”), {cis-Cu^II(μ-OH)(μ-4-Mepz)}30(“Host 16”), {cis-Cu^II(μ-OH)(μ-4-Mepz)}31(“Host 17”), and {cis-Cu^II(μ-OH)(μ-4-Mepz)}32(“Host 18”). These alkyl ligand-bound pyrazole anion-encapsulating aggregates include 4-methylpyrazole (“4-Mepz”) and are somewhat soluble in pentane, hexane and cyclohexane. Hosts 13, 15, and 17 selectively encapsulate both carbonate and sulfate anions. Hosts 14 and 18 selectively encapsulate sulfate anions. Host 16 selectively encapsulates carbonate anions. These encapsulating host assemblies form anion-encapsulating aggregates which are capable of encapsulating anions present as contaminants in aqueous-hydrocarbon solvent mixtures, including without limitation in-process nuclear waste.
Another embodiment of an anion-encapsulating host containing a longer chain ligand-bound pyrazole is based on the formation of encapsulating host assemblies including 4-butylpyrazole. Anion-encapsulating aggregates incorporating 4-butylpyrazole are very soluble in pentane, hexane and cyclohexane, and are gradually less soluble in longer hydrocarbons (such as heptane, octane, decalin, and hexadecane). These anion-encapsulating aggregates can be used to encapsulate anions present as contaminants in aqueous-hydrocarbon solvent mixtures, such as those present in in-process nuclear waste.

Series [3] can be described thus: Liquid-liquid extraction of sulfate from aqueous nitrate solution at pH 14. To be noted: 5 M nitrate (NaNO3), 0.044 M sulfate (Na2SO4), 1.25 M NaOH (pH 14); sulfate to nitrate ratio 1:114. The source says: In experiments, an aqueous solution containing 5 M nitrate (NaNO3), 0.044 M sulfate (Na2SO4) and 1.25 M NaOH (pH 14), in which the sulfate to nitrate ratio is 1:114 was combined together with an organic phase containing the stoichiometrically (based on the amount of sulfate) required amounts of nano-jar components.

Series [4] in a line: Preliminary selectivity study: self-assembly reaction with competing anions, sulfate determined gravimetrically as BaSO4. To be noted: for encapsulation of sulfate into the product: 1:54 molar ratio of sulfate and nitrate (or perchlorate) anions, gravimetric as BaSO4 after digestion with 6M HCl; for selectivity for sulfate ion in the presence of halides: in the presence of fluoride, chloride and bromide ions; for preference for sulfate anion over nitrate or perchlorate anions: preliminary selectivity studies. The source says: A self-assembly reaction using a 1:54 molar ratio of sulfate and nitrate (or perchlorate) anions led to the quantitative encapsulation of sulfate into the product, as determined gravimetrically by precipitation as BaSO4 after digestion with 6M HCl. […] The selectivity for sulfate over nitrate, along with the stability at high (basic) pH is especially relevant for the sulfate-extraction efforts during nuclear waste treatment by vitrification, because it allows liquid-liquid extraction. The methods described herein also offer the benefit of recyclability of the sulfate-encapsulating assemblies. The encapsulating host assemblies can be recovered by stirring the dry residue obtained after BaSO4 precipitation (containing CuCl2, Hpz and Et3NHCl) with excess Et3N in DMF. Following such mixing, the characteristic absorption at 599 nm indicates the re-assembly of the [cis-Cu^II(μ-OH)(μ-pz)]n rings.

As to “(Bu4N)2[SO4^2−⊂{cis-Cu^II(μ-OH)(μ-pz)}6+12+10]”, in series [1], the “stability of the rings at temperature” value is “stability”. For the same substance, in series [2], the “solubility in a wide variety of solvents” value is recorded as “highly soluble”; the solubility in alcohols result was “slightly soluble”; the “solubility in aliphatic hydrocarbons and water” value is “insoluble”.
As for “(Bu4N)2[SO4^2−⊂{cis-Cu^II(μ-OH)(μ-pz)}8+14+9]”, in series [2], the “solubility in a wide variety of solvents” value is given as “highly soluble”; the solubility in alcohols result was “slightly soluble”; the “solubility in aliphatic hydrocarbons and water” value is “insoluble”.
For the substance {cis-Cu^II(μ-OH)(μ-pz)}6+12+10 [Host 1], the “extraction of sulfate anions from aqueous phase to organic phase” value in series [3] was “effectively and selectively extracted”. In series [4], the “encapsulation of sulfate into the product” value was “quantitative”, the “selectivity for sulfate ion in the presence of halides” value was “Partial selectivity” and the “preference for sulfate anion over nitrate or perchlorate anions” value is listed as “marked preference”.
On to {cis-Cu^II(μ-OH)(μ-pz)}8+14+9 [Host 2], for which, in series [3], the “extraction of sulfate anions from aqueous phase to organic phase” value was “effectively and selectively extracted”. Also, in series [4], the “encapsulation of sulfate into the product” value is recorded as “quantitative”, the “selectivity for sulfate ion in the presence of halides” value was “Partial selectivity” and the “preference for sulfate anion over nitrate or perchlorate anions” value is “marked preference”.
